The results in this text go back to paper PMC9783881, “Synthesis and Preclinical Evaluation of Small-Molecule Prostate-Specific Membrane Antigen-Targeted Abiraterone Conjugate” (Molecules, 2022).

One series relates to 22Rv1 cells. The experiment in a line: Cell cycle analysis. Format: cell-based, human. The method, then:
Cell cycle was analyzed in 22Rv1 cells fixed in 70% ethanol with Muse® cell cycle kit. The fixation lasted overnight at −20 °C. Then, cells were collected by centrifugation at 4000 rpm for 10 min and washed with PBS. The cells were resuspended with Muse® Cell Cycle reagent and incubated for 30 min at room temperature in the dark; then, they were counted.

For another series, the system named is PC-3. The experiment in a line: Single cell ROS measurement with Pt-nanoelectrodes, PC-3. Format: cell-based, human. The note with it: PC-3, 1 h incubation, IC50 concentration. The method, then:
Commercially available, disk-shaped carbon nanoelectrodes isolated in quartz (ICAPPIC Limited, London, UK) with diameters of 60–100 nm were used to prepare Pt nanoelectrodes for the amperometric detection of intracellular ROS level. Preparation of Pt-nanoelectrodes has been described in detail previously.
Briefly, a disk-shaped carbon nanoelectrode was etched in a 0.1 M NaOH, 10 mM KCl solution for 20–40 cycles of 10 seconds (from 0 to +2200 mV) to create nanocavities. Electrochemical deposition of platinum in nanocavities was achieved by cycling from 0 to −800 mV with a scan rate of 200 mV s^−1 for 8 to 10 cycles in 2 mM H2PtCl6 solution in 0.1 M hydrochloric acid. […]
The setup for amperometric measurements included a PC that was connected to a system consisting of an ADC–DAC converter Axon Digidata 1550B (Axon Instruments, Burlingame, CA, USA) and patch-clamp amplifier MultiClamp 700B (Axon Instruments, USA). […] The potential difference between the Pt-nanoelectrode and the reference electrode was recorded with the pClamp 11 software suite (Molecular Devices, Silicon Valley, CA, USA) and processed with Origin 2018 software.
PC-3 (2.0 × 10^5)/22Rv1 (3.5 × 10^5) cells were seeded in 35 mm Petri dishes, incubated under the conditions described above, and then treated for 24 h. […] Untreated cells were used as a control, which was evaluated at the beginning and at the end of the experiment. […]

The nature of another series: Pharmacokinetics in rats. Format: in vivo. The method, then: The pharmacokinetic parameters were studied for healthy, outbred, adult, male, albino rats (Wistar) about 3 months old weighing 190–210 g. The experiment included 3 rats for preparation. The formulation of conjugate PSMA-Abi was the same as for the acute toxicity evaluation. Administration dose was 1000 mg/kg.
Blood samples were taken from the tail vein of rats in a volume of 0.2 mL in polyethylene micro-tubes with a capillary up to 0.5 mL by trimming the tip of the tail. K2EDTA was used as an anticoagulant. During the study, a total of 48 blood samples from 3 animals (16 samples from each animal) were selected for PSMA-Abi.
Immediately after taking a blood sample, the tube was carefully inverted several times to mix the contents (anticoagulant). The plasma was then separated by centrifugation at 1500× g for 10 min at a temperature of +4 °C. Centrifugation was performed no later than 15 min after sampling each blood sample. The studied conjugate PSMA-Abi was determined in the blood plasma samples of rats and rabbits by high-performance liquid chromatography (Agilent 1200) with tandem mass spectrometric detection (QTrap 4500 tandem mass spectrometer) with preliminary isolation of the analyte from the biomaterial. Detailed method parameters are described in Table S6.

Series [1] has as its system 22Rv1 prostate cancer subcutaneous xenograft. The experiment in a line: 22Rv1 human tumor xenograft mouse model. Format: in vivo, Balb/c nude mice. The note with it: 22Rv1 xenografts. The method, then:
Male, 6–8 week old Balb/c nude mice with body weight range of 20–22 g were purchased from N.N.Blokhin Cancer Research Center. Animals were kept in plastic cages equipped with lids with feeding recesses, air filters, and feed dividers at 2–3 mice per cage.
Mice were injected subcutaneously in the right and left flanks with 1 × 10^7 22Rv1 cells in RPMI-1640 medium 0.2 mL supplemented with 0.2 mL Corning Matrigel® matrix (Corning, NY, USA) in a total volume of 400 μL. When the average size of the tumors reached ~100 mm^3, mice were randomly divided into three groups, with five mice per group, including a vehicle group (1% starch paste) and two treatment groups: PSMA-Abi 500 mg/kg/day and AbiAc 200 mg/kg/day for 14 days. The drugs were administered orally, and all compounds were formulated with 1% starch paste. Following the treatment, the primary tumor size was measured twice weekly with a micro-caliper, and the tumor volume was calculated using the formula: Volume = π/6 × length × width × height. Treatment outcome was based on percentage of tumor growth inhibition (%TGI), defined as the percent difference between the median tumor volumes (MTVs) of mice in the treated and control groups. Percent TGI was calculated using the following formula: %TGI = [1 − (MTV treatment group/MTV control)] 100%. All data are presented as means ± SD. Statistical analyses of in vivo research were performed using SPSS Statistics V. 22.0, comparing continuous variables by non-parametrical Mann–Whitney U. * p ≤ 0.05 was considered as significant in comparison with the control.

Setting [2] is: single oral administration, mean.
Setting [3] is: single peroral 1000 mg/kg, Mean ± SD.
Setting [4] is: oral x14, PSMA-Abi 500, AbiAc 200 mg/kg/day.

In general, Cmax refers to the maximum level reached in the sampled fluid or tissue. One may read the Tmax as the time from dosing to the highest level.

For `C[C@]12CC[C@H](OC(=O)CCCc3cn(CCCNC(=O)[C@H](Cc4ccc(O)cc4)NC(=O)[C@H](Cc4ccccc4)NC(=O)CCC(=O)NCCCCCC(=O)N(CCCC[C@H](NC(=O)N[C@@H](CCC(=O)O)C(=O)O)C(=O)O)Cc4cccc(Cl)c4)nn3)CC1=CC[C@@H]1[C@@H]2CC[C@]2(C)C(c3cccnc3)=CC[C@@H]12` [PSMA-Abi], in the series on 22Rv1 cells (22Rv1, against a control group), the “effect on cell cycle” value was “not statistically significant against a control group”. For the same molecule, the “level of G0/G1 cells” value in the series with 22Rv1 cells (22Rv1, with increasing concentration) is reported as “practically unchanged”. For the same molecule, in the series with PC-3, the “ROS (hydrogen peroxide) level in single cells” value is recorded as “remained at the level of the AbiAc sample”. In addition, in the series “Pharmacokinetics in rats” (oral 1000 mg/kg), the “maximum plasma concentrations, range over animals” value lay in the range of 190 to 537 ng/mL; the “time plasma concentrations were detected after administration” value was “at least 72 h”; the “time to maximum plasma concentration, range over animals” value is listed as 1.5 to 8 h. For the same molecule, in the series “Pharmacokinetics in rats” (setting [2]), the “AUC0–t” value was 3791 ± 875 ng·h/mL and the “AUC0–∞” value was found to be 4623 ± 1260 ng·h/mL. In addition, the peak concentration (Cmax) in “Pharmacokinetics in rats” (single peroral 1000 mg/kg, 1% starch suspension, Mean ± SD) is reported as 318 ± 190 ng/mL. For the same molecule, in the series “Pharmacokinetics in rats” (setting [3]), the “AUC0–t” value worked out at 3791 ± 875 ng·h/mL, the “AUC0–∞” value turned out to be 4623 ± 1260 ng·h/mL, the “AUCt–∞/AUC0–∞” value was found to be 21 ± 5% and the Kel came to 0.023 ± 0.006 h⁻¹. For the same molecule, in the series “Pharmacokinetics in rats” (setting [3]), the “MRT0–t” value is recorded as 27.2 ± 1.7 h and the “T1/2 (elimination half-life)” value amounted to 31.3 ± 8.7 h. For the same molecule, the Tmax in the series “Pharmacokinetics in rats” (single peroral 1000 mg/kg, mean) is 3.8 h. Moreover, the “TGImax (tumor growth inhibition)” value in series [1] (oral x14, PSMA-Abi 500 mg/kg/day, AbiAc 200 mg/kg/day, after the end of treatment) stood at 65%. In addition, in series [1] (setting [4]), the “TGI, day 15 after start of the treatment” value is reported as 65%; the “TGI, day 18 after start of the treatment” value came out at 63%; the “TGI, day 22 after start of the treatment” value worked out at 60%; the “Tumor volume (M+SE), day 15” value came to 876±197 mm3. Further, in series [1] (setting [4]), the “Tumor volume (M+SE), day 18” value is given as 1063±195 mm3 and the “Tumor volume (M+SE), day 22” value is 1294±201 mm3. Besides, the “Tumor volume (M+SE), day 0” value in series [1] (start of treatment) was determined as 110±18 mm3.
